Series [1] has as its target T1, PSA (Homo sapiens, UniProt P07288). In words: PSA activity assay, inhibition kinetics by progress curves. The class given is biochemical.
Another series relates to elastase. In words: Protease specificity: elastase + suc-AAPV-AMC. It is filed as biochemical.
A further series deals with cathepsin B (Homo sapiens, UniProt P07858). In words: Protease specificity: cathepsin B + Z-RR-AMC. It is filed as biochemical. The conditions noted are these: in words; over a range of concentrations.
A further series deals with trypsin. As to the kind of experiment: Protease specificity: trypsin + Bz-R-AMC. The class given is biochemical.
The subject of series [2] is LNCaP, LAPC-4, CWR22R, C4-2B, DU145, PC3 human prostate cancer cell lines. In words: MTT growth assay, panel of prostate cancer cell lines. The conditions noted are these: 100 nM; cells attached 24 hr before exposure. It is filed as cell-based. A general note: Formazan colour is commonly taken as a measure of viable cells.
Series [3] has as its target T1, PSA. Conditions: 500 nM inhibitor, 37°C, western blot. For orientation: A western blot detects proteins with antibodies after separation by electrophoresis.
Series [4] concerns PSA-positive LNCaP human prostate cancer cells. In words: Clonal survival assay, LNCaP. It is filed as cell-based. The conditions noted are these: compared to vehicle-treated control.
The next series concerns the target cathepsin D (Bos taurus, UniProt P80209). In words: Protease specificity: Cathepsin D Assay Kit. It is filed as biochemical. The conditions noted are these: in words; over a range of concentrations.
The test system of another series is chymotrypsin. In words: Protease specificity: chymotrypsin + suc-AAF-AMC. The class given is biochemical.
Series [5] deals with T1, PSA. The conditions noted are these: 1.5 μM inhibitor, 2 nM PSA, 37°C, 1 hr.
Series [6] has as its target dipeptidyl peptidase 4 (DPP-4) (Homo sapiens, UniProt P27487). As to the kind of experiment: Protease specificity: DPP-4 + AP-AFC. It is filed as biochemical.
The subject of series [7] is PSA-negative TSU human bladder cancer cells. As to the kind of experiment: Clonal survival assay, TSU. The class given is cell-based. Conditions: under these same conditions (100 nM, 1 μM).
Series [8] can be described thus: Initial toxicologic studies, intravenous doses in mice. It is filed as in vivo, mouse.
For series [9], the system named is CWR22R-H PSA-producing human prostate cancer xenograft. As to the kind of experiment: Serum free and total PSA per gram of tumor in CWR22R-H xenograft mice. It is filed as in vivo. The conditions noted are these: over the 10 day period between PSA measurements; 33 mg/kg/dose x 6.
Series [10] shares this test system. In words: Growth of subcutaneous CWR22R-H xenografts. Conditions: 33 mg/kg/dose iv x 6 doses (46: equimolar doses); significant only at day 6.
[11] abbreviates: compared to full-length Z-SSKLL-H.

The text below walks through data of paper PMC3360951 (Chemistry & biology, 2008).

A word on the Ki: it is a measure of affinity in units of concentration, obtained from inhibition or displacement.

T1 sequence (P07288 25-261): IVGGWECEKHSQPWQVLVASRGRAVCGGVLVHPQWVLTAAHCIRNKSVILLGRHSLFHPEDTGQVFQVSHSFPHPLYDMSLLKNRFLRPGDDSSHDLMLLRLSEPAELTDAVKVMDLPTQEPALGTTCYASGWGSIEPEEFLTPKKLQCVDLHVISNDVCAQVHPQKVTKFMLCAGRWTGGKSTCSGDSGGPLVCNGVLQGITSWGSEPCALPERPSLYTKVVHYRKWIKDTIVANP
dipeptidyl peptidase 4 (DPP-4), sequence (P27487 whole entry, species assumed): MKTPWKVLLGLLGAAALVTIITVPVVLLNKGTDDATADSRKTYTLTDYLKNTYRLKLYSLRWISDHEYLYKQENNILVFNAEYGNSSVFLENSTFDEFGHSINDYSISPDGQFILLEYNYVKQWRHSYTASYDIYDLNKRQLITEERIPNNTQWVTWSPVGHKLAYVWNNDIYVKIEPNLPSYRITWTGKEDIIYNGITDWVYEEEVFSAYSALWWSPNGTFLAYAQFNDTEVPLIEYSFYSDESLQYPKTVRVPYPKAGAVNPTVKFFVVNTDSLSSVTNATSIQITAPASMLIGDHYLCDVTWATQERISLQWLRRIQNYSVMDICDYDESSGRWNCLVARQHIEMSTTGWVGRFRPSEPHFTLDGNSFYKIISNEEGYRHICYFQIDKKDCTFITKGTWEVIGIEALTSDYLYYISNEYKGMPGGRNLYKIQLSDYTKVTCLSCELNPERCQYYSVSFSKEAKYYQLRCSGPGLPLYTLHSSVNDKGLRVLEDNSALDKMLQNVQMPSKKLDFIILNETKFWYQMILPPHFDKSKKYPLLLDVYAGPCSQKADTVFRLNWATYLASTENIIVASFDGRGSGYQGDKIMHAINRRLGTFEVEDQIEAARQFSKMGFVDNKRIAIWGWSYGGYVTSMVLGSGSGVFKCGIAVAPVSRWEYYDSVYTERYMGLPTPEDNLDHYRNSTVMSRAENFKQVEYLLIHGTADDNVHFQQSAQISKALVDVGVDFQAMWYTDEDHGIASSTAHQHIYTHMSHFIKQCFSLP
cathepsin D, sequence (P80209 45-390): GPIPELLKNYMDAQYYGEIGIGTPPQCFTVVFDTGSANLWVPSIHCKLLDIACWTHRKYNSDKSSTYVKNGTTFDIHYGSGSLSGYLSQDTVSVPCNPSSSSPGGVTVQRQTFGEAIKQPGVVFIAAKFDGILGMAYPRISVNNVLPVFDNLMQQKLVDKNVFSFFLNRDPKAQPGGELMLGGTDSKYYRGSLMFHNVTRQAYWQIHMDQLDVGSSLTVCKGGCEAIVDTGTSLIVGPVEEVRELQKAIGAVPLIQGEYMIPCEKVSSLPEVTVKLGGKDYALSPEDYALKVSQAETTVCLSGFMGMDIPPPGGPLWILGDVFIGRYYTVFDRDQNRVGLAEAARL

Regarding Z-SSKYL-H [compound 2], the “fold higher Ki for PSA” value at PSA [1] (setting [11]) is recorded as ~ 2 fold.
On to Z-SSKIL-H [compound 4], for which, on PSA [1] (setting [11]), the “fold higher Ki for PSA” value is given as ~ 6 fold.
Consider Z-SKLL-H [compound 8], for which the “fold higher Ki for PSA” value at PSA [1] (setting [11]) is ~ 6.5 fold.
Consider Z-KL(boro)L [compound 36], for which, on PSA [1] (compared to Z-SSKL(boro)L), the “fold increase in Ki for PSA” value turned out to be 90 fold.
Z-SSKL(boro)L [compound 39]: the “selectivity for PSA over elastase” value in the series on elastase was 22 times. The results for the Ki at elastase (elastase), at trypsin (trypsin) and on chymotrypsin (chymotrypsin) were 1.39 µM, over 100 µM and 3.9 µM, respectively. Further, the Selectivity in the series on elastase (elastase relative to PSA inhibition) is on record as 22; with trypsin (trypsin relative to PSA inhibition), over 1500; at PSA [1] (relative to PSA inhibition, PSA itself) it was 1; in the series on chymotrypsin (chymotrypsin relative to PSA inhibition) it was 60; in series [6] (DPPIV relative to PSA inhibition), over 1500. Besides, in the series on elastase (in words), the inhibition of elastase result was “Modest inhibition”. Moreover, the “inhibition of cathepsin B” value at cathepsin B is listed as “no inhibition”. Further, the inhibition of trypsin entry with trypsin (in words) is “did not inhibit”. In addition, the “effect on growth of cell lines” value in [2] is listed as “marginal effect”. In addition, the “protection of IGFBP3 from degradation by PSA” value at PSA [3] is “protected IGFBP3 from degradation by PSA”. Further, the “fold higher Ki for PSA” value at PSA [1] (compared to Z-SSL(boro)L) was ~ 8 fold. Moreover, the “inhibition of clonal survival” value in series [4] (100 nM) is ~ 75%; in [4] (1 μM), ~ 85%; in series [7] it was ~ 25%. Also, the “inhibition of cathepsin D” value against cathepsin D was “no inhibition”. Also, the “fold higher Ki for chymotrypsin than for PSA” value in the series with chymotrypsin is on record as 60 fold. Besides, the “PSA cleavage of the PTHrP peptide 1-34” value at PSA [5] was “completely inhibited”. For the same substance, the “inhibition of DPP-4” value in series [6] (in words) is recorded as “did not inhibit”.
Take Z-SSKLL-CH2OH [compound 26]: the “inhibition of PSA” value on PSA [1] (in words) is “did not inhibit PSA”.
As for Z-SSKL(boro)Nle [compound 38], the “fold increase in Ki for PSA” value on PSA [1] (compared to Z-SSKL(boro)L) is ~ 5 fold.
Regarding Z-KL(boro)Nle [compound 37], at PSA [1] (compared to Z-SSKL(boro)Nle), the “fold increase in Ki for PSA” value is 59 fold.
As to Mu-SSKL(boro)L, the “effect on body weight” value in [8] (dose of 100 mg/kg, mice) is reported as “transient weight loss”. The “lethality (fraction of the mice)” value in series [8] (dose of 300 mg/kg) was “one-third”. Also, the “effects on mouse body weight” value in series [8] (repeat intravenous doses of 33 mg/kg) is “no significant effects”. Besides, in series [8] (repeat intravenous doses of 33 mg/kg, mice), the tolerability entry is on record as “well tolerated”. In [9], the “increase of free PSA levels/gram of tumor” value amounted to 13% and the “increase of total PSA levels/gram of tumor” value is on record as 1.85 fold. Also, in series [10], the “effect on tumor volume / tumor growth compared to vehicle control” value is listed as “slight decrease in tumor volume”.
